Source: patent US20250313563A1, “GLYCOGEN SYNTHASE KINASE 3 INHIBITORS AND USES THEREOF” (The Broad Institute, Inc., priority 2022, published 2025)
pIC50: −log10 of the molar value. Read-outs that look alike come from different tables or passages of the source.

Columns and labels:
[1] = biological target: GSK3b (GST-full length GSK3b) (Homo sapiens (Human), UniProt P49841); assay: GSK3b TR-FRET kinase assay; type: biochemical
Summary of the method: (§1)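 Full-length GST-tagged human enzyme (1 nM) is exposed to test compound for 30 min before substrates are added. Phosphorylation of a primed biotinylated glycogen synthase peptide proceeds 100 min at room temperature at low ATP (4 μM α; 2 μM β) or high ATP (1 mM). Product is quantified by TR-FRET.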

[2] = biological target: GSK3α (GST-full length GSK3α) (Homo sapiens (Human), UniProt P49840); assay: GSK3α TR-FRET kinase assay; type: biochemical
Chain of GSK3α (GST-full length GSK3α) (P49840 whole entry): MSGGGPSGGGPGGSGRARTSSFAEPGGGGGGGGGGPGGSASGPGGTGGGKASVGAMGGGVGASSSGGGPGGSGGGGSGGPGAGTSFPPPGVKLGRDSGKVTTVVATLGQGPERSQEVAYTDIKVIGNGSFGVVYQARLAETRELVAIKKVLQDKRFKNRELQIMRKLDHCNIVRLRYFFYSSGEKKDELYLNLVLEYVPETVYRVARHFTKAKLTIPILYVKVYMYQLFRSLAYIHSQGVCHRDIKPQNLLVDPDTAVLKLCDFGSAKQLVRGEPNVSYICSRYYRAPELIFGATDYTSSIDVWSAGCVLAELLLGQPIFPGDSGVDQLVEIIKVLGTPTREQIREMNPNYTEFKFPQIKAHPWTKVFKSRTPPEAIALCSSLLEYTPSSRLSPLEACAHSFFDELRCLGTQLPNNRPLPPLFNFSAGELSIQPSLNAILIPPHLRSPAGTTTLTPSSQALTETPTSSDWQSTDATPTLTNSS
Summary of the method: as §1

[3] = 1 nM GSK3b, 2 μM ATP, 30 minute preincubation, Table 16, read-out: GSK3-B TR-FRET BIOCHEMICAL (TR-FRET), IC50
[4] = read-out: GSK3-B (TR-FRET 1 mM ATP), GMean, IC50, 1 mM ATP, geometric mean
[5] = 1 nM GSK3α, 4 μM ATP, 30 minute preincubation, Table 16, read-out: GSK3-A TR-FRET BIOCHEMICAL (TR-FRET), IC50
[6] = read-out: GSK3-A (TR-FRET 1 mM ATP), GMean, IC50, 1 mM ATP, geometric mean
[7] = 1 nM GSK3b, 2 μM ATP, 30 minute preincubation, Table 16, read-out: GSK3-B TR-FRET BIOCHEMICAL (TR-FRET)
[8] = 1 nM GSK3α, 4 μM ATP, 30 minute preincubation, Table 16, read-out: GSK3-A TR-FRET BIOCHEMICAL (TR-FRET)
[9] = 1 nM GSK3b, 2 μM ATP, 30 minute preincubation, read-out: GSK3-B TR-FRET BIOCHEMICAL (TR-FRET), IC50
[10] = 1 nM GSK3α, 4 μM ATP, 30 minute preincubation, read-out: GSK3-A TR-FRET BIOCHEMICAL (TR-FRET), IC50
[11] = 1 nM GSK3b, 2 μM ATP, 30 minute preincubation, geometric mean, read-out: GSK3-B TR-FRET BIOCHEMICAL (TR-FRET), GMean, IC50
[12] = 1 nM GSK3α, 4 μM ATP, 30 minute preincubation, geometric mean, read-out: GSK3-A TR-FRET BIOCHEMICAL (TR-FRET), GMean, IC50
[13] = GSK3-B (TR-FRET 1 mM ATP), GMean, IC50, 1 mM ATP, geometric mean
[14] = GSK3-A (TR-FRET 1 mM ATP), GMean, IC50, 1 mM ATP, geometric mean

Chain of GSK3b (GST-full length GSK3b) (P49841 whole entry): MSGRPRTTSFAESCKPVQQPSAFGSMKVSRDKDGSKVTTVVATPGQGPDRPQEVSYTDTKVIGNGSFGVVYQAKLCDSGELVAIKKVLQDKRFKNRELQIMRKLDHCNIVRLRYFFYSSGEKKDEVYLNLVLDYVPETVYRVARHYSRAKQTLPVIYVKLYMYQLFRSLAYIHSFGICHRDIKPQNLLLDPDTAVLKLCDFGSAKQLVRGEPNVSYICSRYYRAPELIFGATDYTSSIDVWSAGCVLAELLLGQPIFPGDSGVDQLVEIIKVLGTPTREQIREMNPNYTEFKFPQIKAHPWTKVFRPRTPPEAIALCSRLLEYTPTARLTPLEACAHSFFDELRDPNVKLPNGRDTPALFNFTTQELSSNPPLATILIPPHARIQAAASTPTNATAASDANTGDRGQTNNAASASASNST

CCC1(c2cccc(-c3cn[nH]c3)c2)C2=C(CC(C)(C)CC2=O)Nc2n[nH]c(C)c21 (stereo not shown) [Compound 913025]
pIC50 [1, 3]: ≥ 7.00 | pIC50 [1, 4]: 6.00 to 7.00 | pIC50 [2, 5]: ≥ 7.00 | pIC50 [2, 6]: ≥ 7.00

CC1(C)CC(=O)C2=C(C1)Nc1n[nH]cc1C21CN(CC(F)(F)F)C1 [Compound 912074]
pIC50 [1, 7]: 6.00 to 7.00 | pIC50 [2, 8]: ≥ 7.00

CCC1(c2cccc(-c3c(C)nn(C)c3C)c2)C2=C(CC(C)(C)CC2=O)Nc2n[nH]cc21 (stereo not shown) [Compound 911991]
pIC50 [1, 3]: < 5.30 | pIC50 [2, 5]: 6.00 to 7.00

CCC1(c2cccc(C(F)(F)F)c2)C2=C(CCN(c3ccsc3)C2=O)Nc2n[nH]cc21 (stereo not shown) [Compound 950776]
pIC50 [1, 3]: 6.00 to 7.00 | pIC50 [2, 5]: ≥ 7.00

CC[C@]1(c2cccc(-c3cnn(C4CC4(F)F)c3)c2)C2=C(CC(C)(C)NC2=O)Nc2n[nH]cc21 (stereo partly shown) [Compound 950060]
pIC50 [1, 3]: 6.00 to 7.00 | pIC50 [2, 5]: ≥ 7.00

O=C1CCCC2=C1C1(CCOCC1)c1c[nH]nc1N2 [Compound 884111]
pIC50 [1, 3]: < 5.30 | pIC50 [2, 5]: 5.30 to 6.00

CCC1(c2cccc(-c3cnc4n3CCCC4)c2)C2=C(CC(C)(C)CC2=O)Nc2n[nH]cc21 (stereo not shown) [Compound 943535]
pIC50 [1, 7]: ≥ 7.00 | pIC50 [2, 8]: ≥ 7.00

CCC1(c2cccc(N(C)C(=O)Cc3ccccc3)c2)C2=C(CC(C)(C)CC2=O)Nc2n[nH]cc21 (stereo not shown) [Compound 912071]
pIC50 [1, 3]: ≥ 7.00 | pIC50 [2, 5]: ≥ 7.00

CCC1(c2cccc(C(F)(F)F)c2)C2=C(Nc3n[nH]cc31)C(C)NC2=O (stereo not shown) [Compound 945379]
pIC50 [1, 9]: 5.30 to 6.00 | pIC50 [2, 10]: 6.00 to 7.00

CC1(C)CC(=O)C2=C(C1)Nc1n[nH]cc1C21COC2(CN(C(=O)C3CCCC3)C2)C1 (stereo not shown) [Compound 943958]
pIC50 [1, 9]: 5.30 to 6.00 | pIC50 [2, 10]: 6.00 to 7.00

CCC1(c2cccc(C(F)(F)F)c2)C2=C(CC(C)(C)N(C)C2=O)Nc2n[nH]cc21 (stereo not shown) [Compound 826791]
pIC50 [1, 9]: 5.30 to 6.00 | pIC50 [2, 10]: 6.00 to 7.00

CCC1(c2cccc(Oc3ncccn3)c2)C2=C(CC(C)(C)CC2=O)Nc2n[nH]cc21 (stereo not shown) [Compound 947818]
pIC50 [1, 7]: < 5.30 | pIC50 [2, 8]: 6.00 to 7.00

CC[C@@]1(c2cccc(-c3ccnn3C)c2)C2=C(CC(C)(C)CC2=O)Nc2n[nH]c(C(F)(F)F)c21 [Compound 947372]
pIC50 [1, 7]: ≥ 7.00 | pIC50 [1, 4]: ≥ 7.00 | pIC50 [2, 8]: ≥ 7.00 | pIC50 [2, 6]: ≥ 7.00

CCC1(c2cccc(N(C)c3ccnc(F)c3)c2)C2=C(CC(C)(C)CC2=O)Nc2n[nH]cc21 (stereo not shown) [Compound 917146]
pIC50 [1, 3]: ≥ 7.00 | pIC50 [2, 5]: ≥ 7.00

CC[C@@]1(c2ccccc2)C2=C(C[C@@](C)(C(F)(F)F)CC2=O)Nc2n[nH]cc21 [Compound 819571]
pIC50 [1, 11]: < 5.30 | pIC50 [2, 12]: < 5.30

CC[C@]1(c2cccc(S(C)(=O)=O)c2)C2=C(CC(C)(C)NC2=O)Nc2n[nH]cc21 [Compound 945604]
pIC50 [1, 9]: ≥ 7.00 | pIC50 [2, 10]: ≥ 7.00

CC(C)n1cc(S(=O)(=O)N2CCC3(CC2)C2=C(CC(C)(C)CC2=O)Nc2n[nH]cc23)cn1 [Compound 947607]
pIC50 [1, 7]: ≥ 7.00 | pIC50 [2, 8]: ≥ 7.00

CCC1(c2cccc(N(C)c3cccnc3)c2)C2=C(CC(C)(C)CC2=O)Nc2n[nH]cc21 (stereo not shown) [Compound 874299]
pIC50 [1, 11]: < 5.30 | pIC50 [2, 12]: 6.00 to 7.00

CC1(C)CC(=O)C2=C(C1)Nc1n[nH]cc1[C@@]21CCCc2ccccc21 [Compound 930565]
pIC50 [1, 3]: < 5.30 | pIC50 [2, 5]: 5.30 to 6.00

CC[C@@]1(c2cccc(C(F)(F)F)c2)C2=C(CCN(c3ccc(C)cc3)C2=O)Nc2n[nH]cc21 [Compound 949118]
pIC50 [1, 11]: 6.00 to 7.00 | pIC50 [2, 12]: ≥ 7.00

CC1(C)CC(=O)C2=C(C1)Nc1n[nH]cc1C21CCN(S(=O)(=O)C2CCCCC2)CC1 [Compound 913128]
pIC50 [1, 3]: ≥ 7.00 | pIC50 [1, 13]: 6.00 to 7.00 | pIC50 [2, 5]: ≥ 7.00 | pIC50 [2, 14]: ≥ 7.00

CC1(C)CC2=C(C(=O)C1F)[C@]1(CC[C@H](C(F)(F)F)CC1)c1c[nH]nc1N2 (stereo partly shown) [Compound 917133]
pIC50 [1, 7]: ≥ 7.00 | pIC50 [2, 8]: ≥ 7.00

CCC1(c2cccc(-c3ccncc3C)c2)C2=C(CC3(CCOCC3)NC2=O)Nc2n[nH]cc21 (stereo not shown) [Compound 948367]
pIC50 [1, 11]: < 5.30 | pIC50 [2, 12]: 6.00 to 7.00

CC[C@@]1(c2cccc(C(F)(F)F)c2)C2=C(CN(c3ccccc3)C2=O)Nc2n[nH]cc21 [Compound 945376]
pIC50 [1, 9]: < 5.30 | pIC50 [2, 10]: < 5.30

CC[C@]1(c2cccc(-c3c(C#N)c(C)nn3C)c2)C2=C(CC(C)(C)NC2=O)Nc2n[nH]cc21 [Compound 951844]
pIC50 [1, 3]: 6.00 to 7.00 | pIC50 [2, 5]: ≥ 7.00

CCC1(c2cccc(C(F)(F)F)c2)C2=C(CN(C)C2=O)Nc2n[nH]cc21 (stereo not shown) [Compound 945367]
pIC50 [1, 9]: 5.30 to 6.00 | pIC50 [2, 10]: 6.00 to 7.00

CC1(C)CC(=O)C2=C(C1)Nc1n[nH]cc1C21CCN(S(=O)(=O)c2ccccc2C(F)F)CC1 [Compound 945657]
pIC50 [1, 7]: 6.00 to 7.00 | pIC50 [1, 13]: 5.30 to 6.00 | pIC50 [2, 8]: ≥ 7.00 | pIC50 [2, 14]: 6.00 to 7.00

CC1(C)CC(=O)C2=C(C1)Nc1n[nH]c(CC(F)(F)F)c1C21CCc2c(F)cccc21 (stereo not shown) [Compound 816837]
pIC50 [1, 11]: 6.00 to 7.00 | pIC50 [2, 12]: 5.30 to 6.00

CCC1(c2cccc(S(=O)(=O)C(C)C)c2)C2=C(CC(C)(C)NC2=O)Nc2[nH]nc(C)c21 (stereo not shown) [Compound 947870]
pIC50 [1, 11]: 6.00 to 7.00 | pIC50 [2, 12]: ≥ 7.00

CCC1(c2cccc(NS(C)(=O)=O)c2)C2=C(CC(C)(C)CC2=O)Nc2n[nH]cc21 (stereo not shown) [Compound 913253]
pIC50 [1, 3]: ≥ 7.00 | pIC50 [2, 5]: ≥ 7.00

CCCC(C(C)=O)c1cccc(C2(CC)C3=C(CC(C)(C)CC3=O)Nc3n[nH]cc32)c1 (stereo not shown) [Compound 909205]
pIC50 [1, 3]: ≥ 7.00 | pIC50 [2, 5]: ≥ 7.00

Cc1ccc(S(=O)(=O)N2CCC3(CC2)C2=C(CC(C)(C)CC2=O)Nc2n[nH]cc23)cn1 [Compound 947482]
pIC50 [1, 7]: ≥ 7.00 | pIC50 [2, 8]: ≥ 7.00

CC[C@@]1(c2cccc(-c3ccncc3OC3CC3)c2)C2=C(CC(C)(C)NC2=O)Nc2n[nH]cc21 [Compound 948643]
pIC50 [1, 11]: < 5.30 | pIC50 [2, 12]: < 5.30

CC1(C)CC(=O)C2=C(C1)Nc1n[nH]cc1[C@@]21CCCOCC1 [Compound 874536]
pIC50 [1, 3]: 5.30 to 6.00 | pIC50 [2, 5]: 6.00 to 7.00

CC[C@@]1(c2cccc(C(C)C)c2)C2=C(CC(C)(C)CC2=O)Nc2n[nH]cc21 [Compound 810373]
pIC50 [1, 11]: ≥ 7.00 | pIC50 [1, 4]: 5.30 to 6.00 | pIC50 [2, 12]: ≥ 7.00 | pIC50 [2, 6]: 6.00 to 7.00

CCC1(c2cccc(-c3ccnc(OC(F)F)c3)c2)C2=C(CC(C)(C)CC2=O)Nc2n[nH]cc21 (stereo not shown) [Compound 932629]
pIC50 [1, 3]: 6.00 to 7.00 | pIC50 [2, 5]: ≥ 7.00

CC[C@]1(c2ccccc2)C2=C(CC3(CC3)CC2=O)Nc2n[nH]cc21 [Compound 790616]
pIC50 [1, 11]: < 5.30 | pIC50 [2, 12]: < 5.30

COc1ccc(S(=O)(=O)N2CCC3(CC2)C2=C(CC(C)(C)CC2=O)Nc2n[nH]cc23)c(F)c1 [Compound 947255]
pIC50 [1, 9]: ≥ 7.00 | pIC50 [1, 13]: 6.00 to 7.00 | pIC50 [2, 10]: ≥ 7.00 | pIC50 [2, 14]: ≥ 7.00

CC[C@]1(c2cccc(C(F)(F)F)c2)C2=C(C[C@H](c3ccccc3)NC2=O)Nc2n[nH]cc21 [Compound 945364]
pIC50 [1, 9]: < 5.30 | pIC50 [2, 10]: < 5.30

COc1cc(S(=O)(=O)N2CCC3(CC2)C2=C(CC(C)(C)CC2=O)Nc2n[nH]cc23)ccc1F [Compound 947263]
pIC50 [1, 7]: ≥ 7.00 | pIC50 [1, 13]: 5.30 to 6.00 | pIC50 [2, 8]: ≥ 7.00 | pIC50 [2, 14]: 6.00 to 7.00
